Assay [1] concerns the target T1, LMO2-iDAb LMO2dm3 interaction (Homo sapiens, UniProt P25791).
T1 construct: LMO2 cDNA was cloned into the pEF-RLuc8-MCS and pEF-MCS-RLuc8 plasmids; expressed in transfected cells; host or cells: HEK293T
T1 sequence (P25791 1-158): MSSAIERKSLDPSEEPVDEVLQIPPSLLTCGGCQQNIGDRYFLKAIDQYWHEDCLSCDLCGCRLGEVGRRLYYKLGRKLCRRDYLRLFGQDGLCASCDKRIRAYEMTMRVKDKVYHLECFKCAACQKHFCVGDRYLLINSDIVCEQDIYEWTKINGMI
As to the kind of experiment: LMO2-iDAb LMO2dm3 BRET assay. It is filed as cell-based. As to conditions: BRET dose response, HEK293T cells, 0.01-50 μM, 22 h. On the procedure: (§1) For all BRET experiments (titration curves and competition assays) 650,000 HEK293T were seeded in each well of a 6 well plates. After 24 hours at 37° C., cells were transfected with a total of 1.6 μg of DNA mix, containing the donor+acceptor±competitor plasmids, using Lipofectamine 2000 transfection reagent (Thermo-Fisher). In dose response competition experiments, competitors were transfected with the following amount of DNA: 0.1; 0.5 and 1 μg. In single dose competition experiments, competitors were transfected with […] of DNA. Cells were detached 24 hours later, washed with PBS and seeded in a white 96-well plate (clear bottom, PerkinElmer, Cat #6005181) in OptiMEM no phenol red medium complemented with 4% FBS and cells were incubated for an additional 20-24 hours at 37° C. before the BRET assay reading. A detailed BRET protocol is provided by Bery and Rabbitts, (2019).
Compounds were prepared in 100% DMSO at 10 mM. For BRET competition assays, cells were treated with the indicated compounds at concentration of 1 (or 5), 10 and 20 μM for 22 h. For BRET-based dose response experiments, cells were treated with compounds at concentration of 0.01, 0.1, 1, 4, 10, 25 and 50 μM for 22 h. The compounds were diluted in the BRET medium: OptiMEM no phenol red (Life Technologies) supplemented with 4% FBS and with a final concentration of 0.2% DMSO.
BRET2 signal was determined immediately after injection of coelenterazine 400a substrate (10 μM final) to cells (Cayman Chemicals), using a CLARIOstar instrument (BMG Labtech) with a luminescence module. Total GFP^2 fluorescence was detected with excitation and emission peaks set at 405 nm and 515 nm respectively. Total RLuc8 luminescence was measured with the Luminescence 400-700 nm-wavelength filter.
The BRET signal or BRET ratio corresponds to the light emitted by the GFP^2 acceptor constructs (515 nm±30) upon addition of coelenterazine 400a divided by the light emitted by the RLuc8 donor constructs (410 nm±80). The background signal is subtracted from that BRET ratio using the donor-only negative control where only the RLuc8 fusion plasmid is transfected into the cells. The normalized BRET ratio is the BRET ratio normalized to a negative control (iDAb control or DMSO control) during a competition assay. Total GFP^2 and RLuc8 signals were used to control the protein expression from each plasmid.

The target of assay [2] is T2, LMO2-iDAb LMO2 (unmutated iDAb) interaction (Homo sapiens, UniProt P25791).
T2 construct: LMO2 cDNA was cloned into the pEF-RLuc8-MCS and pEF-MCS-RLuc8 plasmids; expressed in transfected cells; host or cells: HEK293T
T2 sequence (P25791 1-158): T1 sequence (P25791 1-158)
As to the kind of experiment: LMO2-iDAb LMO2 (unmutated iDAb) BRET assay. It is filed as cell-based. The conditions noted are these: BRET dose response. As to the method:
as §1
Compounds were prepared in 100% DMSO at 10 mM. […]
BRET2 signal was determined immediately after injection of coelenterazine 400a substrate (10 μM final) to cells (Cayman Chemicals), using a CLARIOstar instrument (BMG Labtech) with a luminescence module. Total GFP^2 fluorescence was detected with excitation and emission peaks set at 405 nm and 515 nm respectively. Total RLuc8 luminescence was measured with the Luminescence 400-700 nm-wavelength filter. […]
A general note: Bioluminescence resonance energy transfer reports proximity on the nanometre scale.

A further assay addresses T3, scFv-LMO2 (Homo sapiens, UniProt P25791).
T3 construct: made in house; host or cells: E. coli C41 (DE3)
T3 sequence (P25791 1-158): T1 sequence (P25791 1-158)
As to the kind of experiment: Photoaffinity labelling (PAL) pulldown. Type of assay: binding. The conditions noted are these: 20 μM Abd-L26, UV light, avidin beads. On the procedure:
20 μM of Abd-L26 with or without 100 μM of Abd-L9 (competitor) are added in a final volume of 400 μL of PBS with 40 μg of purified protein of interest (scFv-LMO2). The same samples are prepared for the no UV controls. The samples are incubated for 25 minutes at RT. The samples to be crosslinked are put into ice and under the UV lamp for crosslinking for 1 hour. The no UV controls are kept on ice. During the 1 hour of crosslinking, the agarose monomeric avidin beads (Cat #20228, Thermofisher) are washed twice with PBS. After the crosslink, 20 μL of washed beads are added in all the samples (crosslinked and non-crosslinked) and incubated for 2 hours at 4° C. on a roller. 2 hours later, wash the beads three times with 400 μL of PBS. The samples are finally denatured with 50 μL of 2× loading buffer with BME added directly on the beads (and boiled at 100° C. for 5 minutes) and loaded for a western blot analysis.

From patent US20230303544A1, “LMO2 PROTEIN INHIBITORS” (UNIVERSITY OF OXFORD, priority 2020, published 2023) come the findings set out here.

Molecules are shown by their SMILES. Entries after “also recorded” stand apart in the source; their conditions may differ.

The IC50 is the point on the concentration scale where inhibition reaches its midpoint. High values mean weaker potency in that assay, low ones greater potency in that assay. On to `COc1cccc(CN2CCN(c3nc(C(=O)Nc4ccc(OC)nc4)cs3)CC2)c1` [Abd-L22, 2-(4-(3-methoxybenzyl)piperazin-1-yl)-N-(6-methoxypyridin-3-yl)thiazole-4-carboxamide], for which inhibition in assay [1] was half-maximal at 6.8 µM (IC50). Further, in assay [2], the “concentration at which LMO2-iDAb LMO2 interaction is inhibited” value is “above 25 μM”. On to `O=C(CCCC[C@H]1SC[C@H]2NC(=O)N[C@H]21)NCCOCCOCC(=O)Nc1ccc(NC(=O)c2coc(N3CCN(Cc4ccc(C(=O)c5ccccc5)cc4)CC3)n2)cc1` [Abd-L26, 2-(4-(4-benzoylbenzyl)piperazin-1-yl)-N-(4-(2-(2-(2-(5-((3aR,4R,6aS)-2-oxohexahydro-1H-thieno[3,4-d]imidazol-4-yl)pentanamido)ethoxy)ethoxy)acetamido)phenyl)oxazole-4-carboxamide], for which, at scFv-LMO2, the “photo-crosslinking to LMO2 protein (pulldown, Western blot)” value was “observed a biotin labelled protein; also recorded: confirmed binding to LMO2 protein”.
